Broadly, the Km is the substrate concentration at which the rate is half of its maximum.

The target of series [1] is T1, D-sorbitol dehydrogenase (SLDH) (Gluconobacter thailandicus, UniProt Q8KIL1).
T1 sequence (Q8KIL1 30-740): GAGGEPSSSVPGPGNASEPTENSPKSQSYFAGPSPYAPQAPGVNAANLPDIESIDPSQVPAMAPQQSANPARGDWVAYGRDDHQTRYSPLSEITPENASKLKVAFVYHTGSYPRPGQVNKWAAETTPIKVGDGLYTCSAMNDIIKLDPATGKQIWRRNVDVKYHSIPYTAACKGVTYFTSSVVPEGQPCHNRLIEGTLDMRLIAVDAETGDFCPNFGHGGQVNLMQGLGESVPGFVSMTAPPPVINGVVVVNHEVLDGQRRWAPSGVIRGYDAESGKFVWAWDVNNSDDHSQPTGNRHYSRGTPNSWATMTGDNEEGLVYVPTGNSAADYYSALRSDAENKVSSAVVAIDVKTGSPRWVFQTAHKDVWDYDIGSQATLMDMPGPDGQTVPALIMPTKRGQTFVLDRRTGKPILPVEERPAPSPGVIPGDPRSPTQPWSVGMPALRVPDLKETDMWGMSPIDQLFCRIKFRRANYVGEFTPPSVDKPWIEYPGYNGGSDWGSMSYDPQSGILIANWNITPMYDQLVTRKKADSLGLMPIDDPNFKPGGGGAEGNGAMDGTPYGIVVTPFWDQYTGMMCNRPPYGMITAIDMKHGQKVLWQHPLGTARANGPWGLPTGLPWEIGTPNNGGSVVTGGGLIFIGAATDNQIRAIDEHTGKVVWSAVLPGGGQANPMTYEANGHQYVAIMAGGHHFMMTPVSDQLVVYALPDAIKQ
Description: Effects of metal ions and inhibitors on the SLDH activity. In kind it is biochemical, Gluconobacter suboxydans IFO 3255. Also on record: The SLDH was isolated from the membrane fraction of Gluconobacter suboxydans IFO 3255 (DSM 9715); made in house; host or cells: Gluconobacter suboxydans IFO 3255 (DSM 9715), native source (not recombinant): purified from the solubilized membrane fraction. To be noted: for effect on SLDH activity: addition of 0.91 mM; for activity at 960 µM / activity at 1890 µM: read-out: Relative activity (%).

The target of series [2] is T1, D-sorbitol dehydrogenase (SLDH). Description: Substrate specificity of the purified D-sorbitol dehydrogenase (DCIP reduction enzyme assay). It counts as biochemical, Gluconobacter suboxydans IFO 3255. Also on record: The SLDH was isolated from the membrane fraction of Gluconobacter suboxydans IFO 3255 (DSM 9715); made in house; host or cells: Gluconobacter suboxydans IFO 3255 (DSM 9715), native source (not recombinant): purified from the solubilized membrane fraction. To be noted: for activity at 100000 µM: read-out: Relative activity.

For series [3], the system named is membrane-bound D-sorbitol dehydrogenase. To be noted: Shinagawa et al. enzyme; cited from earlier work.
In series [4] the target is T1, D-sorbitol dehydrogenase (SLDH). To be noted: conversion of D-sorbitol to L-sorbose.
Substrate in series [5]: OC[C@@H](O)[C@@H](O)[C@H](O)[C@@H](O)CO
Description: Effects of substrate concentration on reaction rate (Km). To be noted: other: D-sorbitol 0.5 to 80 mM; DCIP as electron acceptor. In kind it is biochemical, Gluconobacter suboxydans IFO 3255. On the procedure:
The velocity of the oxidizing reaction on varying the concentration of D-sorbitol from 0.5 to 80 mM was measured to determine the Km value for D-sorbitol. The apparent Michaelis constant was calculated to be 18 mM with DCIP as an electron acceptor for the reaction.

Setting [6] is: metal 0.91 mM, percentage of the reaction rate without metal compounds.
Setting [7] is: metal 1.79 mM, percentage of the reaction rate without metal compounds.
Setting [8] is: substrate solutions 100 mM, percent of the reaction rate obtained with D-sorbitol.
The mark [9] stands for this setting: inhibitor 0.96 mM, percentage of the reaction rate without inhibitors.
Setting [10] is: inhibitor 1.89 mM, percentage of the reaction rate without inhibitors.

Where a name gives a salt, the structure may show the parent alone. Read-outs that look alike come from different tables or passages of the source.

Turning to `O=S(=O)([O-])[O-].O=S(=O)([O-])[O-].O=S(=O)([O-])[O-].[Fe+3].[Fe+3]` [Fe2 (SO4)3.xH2 O], the “Relative activity (%)” value in series [1] (setting [6]) and in series [1] (setting [7]) was 0% each time.

Turning to `[Fe+3]` [Fe^3+], the “effect on SLDH activity” value in series [1] is listed as “strongly inhibitory”.

As to `O=C(O)CN(CCN(CC(=O)O)CC(=O)O)CC(=O)O` [EDTA], in series [1], the activity at 960 µM turned out to be 96.7% and the activity at 1890 µM was found to be 100%.

For the molecule `CO` [Methanol], the activity at 100000 µM in series [2] was 0%.

For `OC[C@@H](O)[C@@H](O)[C@H](O)[C@@H](O)CO` [D-Sorbitol], the activity at 100000 µM in series [2] is 100%. In addition, the “oxidation by SLDH” value in series [2] (substrate solutions 100 mM) is on record as “highly oxidized”.

For `O.O.O.O.O.O.[Cl-].[Cl-].[Mg+2]` [MgCl2.6H2 O], the “Relative activity (%)” value was 88% in series [1] (setting [6]) and 92% in series [1] (setting [7]).

On to `OC[C@@H](O)[C@H](O)[C@@H](O)CO` [D-Xylitol], for which the activity at 100000 µM in series [2] (setting [8]) turned out to be 0%.

Turning to MnSO4.4~6H2 O, the “Relative activity (%)” value in series [1] (setting [6]) and in series [1] (setting [7]) was 88% throughout.

For the molecule `O.O.O.O.O.O.O.O=[As]([O-])([O-])O.[Na+].[Na+]` [Na2 HAsO4.7H2 O], the “Relative activity (%)” value came out at 116.7% in series [1] (setting [9]) and 120.0% in series [1] (setting [10]).

With `O.O.O.O.O=[N+]([O-])[O-].O=[N+]([O-])[O-].[Ca+2]` [Ca(NO3)2.4H2 O], the “Relative activity (%)” value in series [1] (setting [6]) and in series [1] (setting [7]) was 96% each time.

Turning to `[N-]=[N+]=[N-].[Na+]` [NaN3], the results for the “Relative activity (%)” value in series [1] (setting [9]) and in series [1] (setting [10]) were 91.7% and 112.5%, respectively.

Consider `[Cl][Ti]([Cl])([Cl])[Cl]` [TiCl4], for which the entries for the “Relative activity (%)” value in series [1] (setting [6]) and in series [1] (setting [7]) were 96% and 88%, respectively.

In the case of `O.O.[Na+].[Na+].[O]=[Mo](=[O])([O-])[O-]` [Na2 MoO4.2H2 O], the “Relative activity (%)” value turned out to be 68% in series [1] (setting [6]) and 96% in series [1] (setting [7]).

With `OC[C@@H](O)C(O)[C@H](O)CO` [D-Arabitol], the “oxidation by SLDH” value in series [2] (substrate solutions 100 mM) is on record as “highly oxidized”. Moreover, the activity at 100000 µM in series [2] (setting [8]) was determined as 175%. In addition, in series [3], the “oxidation by the enzyme” value was “did not oxidize”.

For the molecule `C=C[C@H]1CN2CC[C@H]1C[C@H]2[C@H](O)c1ccnc2ccc(OC)cc12` [Quinine-HCl, quinine hydrochloride], the activity at 960 µM in series [1] (setting [9]) amounted to 79.2%. In series [1] (setting [10]), the activity at 1890 µM is 75%. In addition, in series [1] (inhibitors (Table 7)), the “inhibitory by” value is reported as 25%.

In the case of `[Ca+2].[Cl-].[Cl-]` [CaCl2], the “Relative activity (%)” value in series [1] (setting [6]) and in series [1] (setting [7]) was 96% each time.

Regarding `O=S(=O)([O-])[O-].[Cu+2]` [CuSO4], the “Relative activity (%)” value in series [1] (setting [6]) and in series [1] (setting [7]) was 0% in each case.

Turning to `OC[C@H]1O[C@@](CO)(O[C@H]2O[C@H](CO)[C@@H](O)[C@H](O)[C@H]2O)[C@@H](O)[C@@H]1O` [Sucrose], in series [2] (setting [8]), the activity at 100000 µM is 0%.

Regarding `OC[C@@H](O)[C@@H](O)CO` [meso-Erythritol], the “oxidation by SLDH” value in series [2] (substrate solutions 100 mM) is on record as “highly oxidized”. The activity at 100000 µM in series [2] (setting [8]) came to 172%. In addition, the “oxidation by the enzyme” value in series [3] is recorded as “did not oxidize”.

On to `O.O.O.O.O.O.[Cl-].[Cl-].[Co+2]` [CoCl2.6H2 O], for which the results for the “Relative activity (%)” value in series [1] (setting [6]) and in series [1] (setting [7]) were 117% and 108%, respectively.

As to `[Cl-].[Cl-].[Zn+2]` [ZnCl2], the “Relative activity (%)” value is given as 56% in series [1] (setting [6]) and 32% in series [1] (setting [7]).

For `CCO` [Ethanol], the activity at 100000 µM in series [2] was 0%.

With `[F-].[Na+]` [Sodium fluoride], the “Relative activity (%)” value in series [1] (setting [9]) and in series [1] (setting [10]) was 100% throughout.

In the case of `CCN1C(=O)C=CC1=O` [N-Ethylmaleimide], in series [1] (setting [9]), the activity at 960 µM was found to be 117%. Besides, the activity at 1890 µM in series [1] was found to be 100%.

On to `O.O.[Cl][Cu][Cl]` [CuCl2.2H2 O], for which the “Relative activity (%)” value in series [1] (setting [6]) and in series [1] (setting [7]) was 0% in each case.

As to `O=C(O)CI` [Monoiodoacetate], in series [1], the “inhibitory by” value worked out at 75%, the activity at 960 µM is 75% and the activity at 1890 µM worked out at 25%.

Turning to `O=C(O)CF` [Sodium fluoroacetate], in series [1], the activity at 960 µM was 104% and the activity at 1890 µM is 108%.

`[Cu+2]` [Cu^2+]: the “effect on SLDH activity” value in series [1] was “strongly inhibitory”.

Consider `O.O.O.O.[Cl][Mn][Cl]` [MnCl2.4H2 O], for which the “Relative activity (%)” value in series [1] (setting [6]) amounted to 80%; in series [1] (setting [7]), 88%.

On to `O.O.O.O.O.O.O=S(=O)([O-])[O-].[Ni+2]` [NiSO4.6H2 O], for which the “Relative activity (%)” value in series [1] (setting [6]) is reported as 88%; in series [1] (setting [7]), 108%.

On to `OCC(O)CO` [Glycerol], for which the “oxidation by SLDH” value in series [2] (substrate solutions 100 mM) is on record as “highly oxidized”. The activity at 100000 µM in series [2] (setting [8]) was 117%.

Consider `O.O.O.O=[N+]([O-])[O-].O=[N+]([O-])[O-].[Cu+2]` [Cu(NO3)2.3H2 O], for which the “Relative activity (%)” value in series [1] (setting [6]) and in series [1] (setting [7]) was 0% in each case.

On to `O.O.O.O.O.O.O.O=S(=O)([O-])[O-].[Zn+2]` [ZnSO4.7H2 O], for which the “Relative activity (%)” value in series [1] (setting [6]) came out at 44%; in series [1] (setting [7]), 40%.

Turning to `O=C(CO)[C@@H](O)[C@H](O)[C@@H](O)CO` [L-Sorbose], the activity at 100000 µM in series [2] (setting [8]) is 0%.

For the molecule `O=O` [oxygen], the “use as electron acceptor” value in series [4] was “does not utilize oxygen as an electron acceptor”.

Consider `O=C(CO)[C@@H](O)[C@H](O)[C@H](O)CO` [D-Fructose], for which the activity at 100000 µM in series [2] (setting [8]) amounted to 0%.

As to `OC[C@@H](O)[C@@H](O)[C@H](O)[C@H](O)CO` [D-Mannitol], the activity at 100000 µM in series [2] worked out at 49.9%. For the same molecule, the “reaction rate relative to D-sorbitol” value in series [3] was 5%.

With `OC[C@@H](O)[C@@H](O)[C@@H](O)CO` [D-Adonitol], the activity at 100000 µM in series [2] (setting [8]) was determined as 66.6%.

Regarding `OC[C@H]1OC(O)[C@H](O)[C@@H](O)[C@@H]1O` (stereo partly drawn) [D-Glucose], the activity at 100000 µM in series [2] came to 0%.

B1: D-sorbitol dehydrogenase (SLDH) (Gluconobacter thailandicus) (protein)
chain: GAGGEPSSSVPGPGNASEPTENSPKSQSYFAGPSPYAPQAPGVNAANLPDIESIDPSQVPAMAPQQSANPARGDWVAYGRDDHQTRYSPLSEITPENASKLKVAFVYHTGSYPRPGQVNKWAAETTPIKVGDGLYTCSAMNDIIKLDPATGKQIWRRNVDVKYHSIPYTAACKGVTYFTSSVVPEGQPCHNRLIEGTLDMRLIAVDAETGDFCPNFGHGGQVNLMQGLGESVPGFVSMTAPPPVINGVVVVNHEVLDGQRRWAPSGVIRGYDAESGKFVWAWDVNNSDDHSQPTGNRHYSRGTPNSWATMTGDNEEGLVYVPTGNSAADYYSALRSDAENKVSSAVVAIDVKTGSPRWVFQTAHKDVWDYDIGSQATLMDMPGPDGQTVPALIMPTKRGQTFVLDRRTGKPILPVEERPAPSPGVIPGDPRSPTQPWSVGMPALRVPDLKETDMWGMSPIDQLFCRIKFRRANYVGEFTPPSVDKPWIEYPGYNGGSDWGSMSYDPQSGILIANWNITPMYDQLVTRKKADSLGLMPIDDPNFKPGGGGAEGNGAMDGTPYGIVVTPFWDQYTGMMCNRPPYGMITAIDMKHGQKVLWQHPLGTARANGPWGLPTGLPWEIGTPNNGGSVVTGGGLIFIGAATDNQIRAIDEHTGKVVWSAVLPGGGQANPMTYEANGHQYVAIMAGGHHFMMTPVSDQLVVYALPDAIKQ
notes: The SLDH was isolated from the membrane fraction of Gluconobacter suboxydans IFO 3255 (DSM 9715); made in house; host or cells: Gluconobacter suboxydans IFO 3255 (DSM 9715), native source (not recombinant): purified from the solubilized membrane fraction
With B1, the Km in series [5] is given as 18 mM.

Source of the values: patent US5747301A, “D-sorbitol dehydrogenase” (Roche Vitamins Inc., priority 1995, dated 1998).
